The source of these data is patent publication US11773078B2, “Furin inhibitors” (Glaxosmithkline Intellectual Property Development Limited, priority 2018, dated 2023).

Molecules are shown by their SMILES. Where only a bound is given, the exact number is not on record here.

In experiment [1] the target is T1, furin (endogenous protease) in U20S cells (Homo sapiens, UniProt P09958).
T1 construct: the endogenous protease cleaves GFP; endogenous in cells; host or cells: U2OS cells transduced with a BacMam reporter
In words: Furin cell-based assay (image-based, Golgi-targeted GFP with BMP10 furin/PCSK cleavage site).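 Further: Read-out is mean GFP fluorescence of Golgi puncta per cell by high-content imaging, retained when furin inhibited, over an eleven-point 0.00017–10 µM series, four-parameter fit.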 The following applies: 24-hour incubation, read-out: furin golgi cell pXC50 (converted).

Experiment [2] deals with T2, Furin (108-574-Tev-Flag-His) enzyme (Homo sapiens, UniProt P09958).
T2 construct: Furin (108-574-Tev-Flag-His) enzyme was expressed and purified from CHO cells; TEV cleavage site (C); FLAG (C); His (C); made in house; host or cells: CHO cells
In words: Furin enzyme assay. The class given is biochemical. On the procedure:
Reactions were performed in black 384-well polystyrene low volume plates (Greiner). Furin (108-574-Tev-Flag-His) enzyme was expressed and purified from CHO cells. Compounds of the invention were dissolved in DMSO (1.0 mM) and serially diluted 1 to 3 with DMSO through eleven dilutions to provide a final compound concentration range from 0.00017 to 10 μM. 0.05 μL of each concentration was transferred to the corresponding well of an assay plate, and then 5 μL of 40 pM furin enzyme in assay buffer (100 mM HEPES pH7.5, 1 mM CaCl2 and 0.005% Triton X-100) was added using a Multidrop Combi (Thermo) to the compound plates, and mixed by inversion. […] The plates were centrifuged at 500×g for 1 minute and incubated at room temperature for two hours. Enzyme inhibition is then quantified using an Envision instrument (PerkinElmer).
Data were analyzed using AbaseXE 7.3, utilizing a four-parameter curve fit equation. The following values were used to define limits and/or constraints for each of the four parameters: • Minimum—limit −10 to 10 • Maximum—90 to 110 • Slope—limit 0.5 to 2.0 • pXC50 confidence interval—10
Raw counts obtained from the respective plate reader (Perkin Elmer) were captured for data analysis. Curves were generated using the equation: Y=A+[(B−A)/(1+(10^C/x)^D)] • where: A=minimum response • B=maximum response • C=log 10*XC50 • D=slope factor • x=log 10 compound concentration [M]
The results were recorded as pXC50 values (−C in the above equation)

T1 sequence (P09958 108-794): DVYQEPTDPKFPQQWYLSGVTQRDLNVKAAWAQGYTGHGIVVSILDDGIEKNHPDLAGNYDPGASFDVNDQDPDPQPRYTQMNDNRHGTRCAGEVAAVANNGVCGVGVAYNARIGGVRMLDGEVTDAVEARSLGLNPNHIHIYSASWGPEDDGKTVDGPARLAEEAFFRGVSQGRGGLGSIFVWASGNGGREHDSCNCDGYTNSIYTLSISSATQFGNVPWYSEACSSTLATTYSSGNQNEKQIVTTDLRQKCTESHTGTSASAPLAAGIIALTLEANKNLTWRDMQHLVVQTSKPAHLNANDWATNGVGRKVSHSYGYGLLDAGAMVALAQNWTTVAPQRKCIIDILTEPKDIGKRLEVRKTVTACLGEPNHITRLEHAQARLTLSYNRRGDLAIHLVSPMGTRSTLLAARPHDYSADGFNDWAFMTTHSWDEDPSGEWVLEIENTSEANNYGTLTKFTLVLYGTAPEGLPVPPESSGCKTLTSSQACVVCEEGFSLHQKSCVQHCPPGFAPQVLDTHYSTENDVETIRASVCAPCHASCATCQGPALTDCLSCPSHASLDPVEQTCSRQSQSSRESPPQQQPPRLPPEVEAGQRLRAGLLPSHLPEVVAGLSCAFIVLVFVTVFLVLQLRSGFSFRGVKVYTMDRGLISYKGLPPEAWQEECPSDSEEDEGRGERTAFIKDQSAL
T2 sequence (P09958 108-574): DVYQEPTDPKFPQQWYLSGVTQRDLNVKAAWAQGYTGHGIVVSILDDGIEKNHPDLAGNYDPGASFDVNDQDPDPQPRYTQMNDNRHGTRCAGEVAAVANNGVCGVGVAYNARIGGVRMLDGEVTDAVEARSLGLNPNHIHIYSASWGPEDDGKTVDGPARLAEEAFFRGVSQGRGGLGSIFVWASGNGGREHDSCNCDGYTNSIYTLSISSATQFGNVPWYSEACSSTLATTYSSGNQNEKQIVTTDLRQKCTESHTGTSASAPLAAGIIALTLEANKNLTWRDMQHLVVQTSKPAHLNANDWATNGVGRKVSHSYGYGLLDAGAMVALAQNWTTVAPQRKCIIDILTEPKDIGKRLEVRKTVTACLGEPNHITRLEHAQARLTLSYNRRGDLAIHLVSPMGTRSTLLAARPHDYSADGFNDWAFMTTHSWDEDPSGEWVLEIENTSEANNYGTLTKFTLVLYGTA

Take `CNC(=O)NCC1CCN(Cc2cc(Oc3cnc(N4CCN(CCC(C)[S+](C)[O-])CC4)nc3)nc(-c3cc(Cl)cc(Cl)c3)c2)CC1` (centres unmarked) [Example 17, 1-((1-((2-(3,5-dichlorophenyl)-6-((2-(4-(3-(methylsulfinyl)butyl)piperazin-1-yl)pyrimidin-5-yl)oxy)pyridin-4-yl)methyl)piperidin-4-yl)methyl)-3-methylurea]: the EC50 in experiment [1] is 2 nM. The IC50 in experiment [2] (read-out: furin enzyme pIC50 (converted)) is 0.0316 nM.
Regarding `CNC(=O)NCC1CCN(Cc2cc(Oc3cnc(N4CCN(C(C)CCS(C)(=O)=O)CC4)nc3)nc(-c3cc(Cl)cc(Cl)c3)c2)CC1` (centres unmarked) [Example 18, 1-((1-((2-(3,5-dichlorophenyl)-6-((2-(4-(4-(methylsulfonyl)butan-2-yl)piperazin-1-yl)pyrimidin-5-yl)oxy)pyridin-4-yl)methyl)piperidin-4-yl)methyl)-3-methylurea], the EC50 in experiment [1] is 0.501 nM. For the same compound, in experiment [2], the “furin enzyme pIC50” value is 10.7.
On the same counts, the results for `CC(=O)NCC1CCN(Cc2cc(Oc3cnc(N4CCN(C(C)CCS(C)(=O)=O)CC4)nc3)nc(-c3cc(Cl)cc(Cl)c3)c2)CC1` (centres unmarked) [Example 19, N-((1-((2-(3,5-dichlorophenyl)-6-((2-(4-(4-(methylsulfonyl)butan-2-yl)piperazin-1-yl)pyrimidin-5-yl)oxy)pyridin-4-yl)methyl)piperidin-4-yl)methyl)acetamide] are 0.398 nM and 10.2.
On the same counts, the results for `CNC(=O)NCC1CCN(Cc2cc(Oc3cnc(N4CCN(C(C)CCO)CC4)nc3)nc(-c3cc(Cl)cc(Cl)c3)c2)CC1` (centres unmarked) [Example 20, 1-((1-((2-(3,5-dichlorophenyl)-6-((2-(4-(4-hydroxybutan-2-yl)piperazin-1-yl)pyrimidin-5-yl)oxy)pyridin-4-yl)methyl)piperidin-4-yl)methyl)-3-methylurea] are 1 nM and 9.6.
In the case of `CC(CO)N1CCN(c2ncc(Oc3cc(CN4CCC(CC(=O)O)CC4)cc(-c4cc(Cl)cc(Cl)c4)n3)cn2)CC1` (centres unmarked) [Example 21, 2-(1-((2-(3,5-dichlorophenyl)-6-((2-(4-(1-hydroxypropan-2-yl)piperazin-1-yl)pyrimidin-5-yl)oxy)pyridin-4-yl)methyl)piperidin-4-yl)acetic acid], the EC50 in experiment [1] is 6.31 nM. Moreover, the “furin enzyme pIC50” value in experiment [2] is given as 9.9.
As to `O=C(O)CC1CCN(Cc2cc(Oc3cnc(N4CCN(C5CC(O)C5)CC4)nc3)nc(-c3cc(Cl)cc(Cl)c3)c2)CC1` (centres unmarked) [Example 22, 2-(1-((2-(3,5-dichlorophenyl)-6-((2-(4-(3-hydroxycyclobutyl)piperazin-1-yl)pyrimidin-5-yl)oxy)pyridin-4-yl)methyl)piperidin-4-yl)acetic acid], the EC50 in experiment [1] was 10 nM. Further, the “furin enzyme pIC50” value in experiment [2] was 9.5.
Consider `O=C(O)CC1CCN(Cc2cc(Oc3cnc(N4CCN(C(CO)CO)CC4)nc3)nc(-c3cc(Cl)cc(Cl)c3)c2)CC1` [Example 23, 2-(1-((2-(3,5-dichlorophenyl)-6-((2-(4-(1,3-dihydroxypropan-2-yl)piperazin-1-yl)pyrimidin-5-yl)oxy)pyridin-4-yl)methyl)piperidin-4-yl)acetic acid], for which, in experiment [1], the EC50 was 15.8 nM. Further, the “furin enzyme pIC50” value in experiment [2] is listed as 8.3.
The like results for `C[C@]1(O)C[C@@H](N2CCN(c3ncc(Oc4cc(CN5CCC(CC(=O)O)CC5)cc(-c5cc(Cl)cc(Cl)c5)n4)cn3)CC2)C1` [Example 24, 2-(1-((2-(3,5-dichlorophenyl)-6-((2-(4-((1s,3s)-3-hydroxy-3-methylcyclobutyl)piperazin-1-yl)pyrimidin-5-yl)oxy)pyridin-4-yl)methyl)piperidin-4-yl)acetic acid] were, in that order, 12.6 nM and 8.6.
The like results for `C[C@]1(O)C[C@H](N2CCN(c3ncc(Oc4cc(CN5CCC(CC(=O)O)CC5)cc(-c5cc(Cl)cc(Cl)c5)n4)cn3)CC2)C1` [Example 25, 2-(1-((2-(3,5-dichlorophenyl)-6-((2-(4-((1r,3r)-3-hydroxy-3-methylcyclobutyl)piperazin-1-yl)pyrimidin-5-yl)oxy)pyridin-4-yl)methyl)piperidin-4-yl)acetic acid] were, in that order, 12.6 nM and 8.2.
Turning to `CC(=O)NCC1CCN(Cc2cc(Oc3ccc(N4CCN([C@H]5C[C@H](NS(C)(=O)=O)C5)CC4)nc3)nc(-c3cc(Cl)cc(Cl)c3)c2)CC1` [Example 26, N-((1-((2-(3,5-Dichlorophenyl)-6-((6-(4-((trans)-3-(methylsulfonamido)cyclobutyl)piperazin-1-yl)pyridin-3-yl)oxy)pyridin-4-yl)methyl)piperidin-4-yl)methyl)acetamide], the EC50 in experiment [1] was 1.58 nM. Further, in experiment [2], the “furin enzyme pIC50” value is 9.9.
On the same counts, the results for `CC(=O)NCC1CCN(Cc2cc(Oc3ccc(N4CCN([C@H]5C[C@@H](NS(C)(=O)=O)C5)CC4)nc3)nc(-c3cc(Cl)cc(Cl)c3)c2)CC1` [Example 27, N-((1-((2-(3,5-Dichlorophenyl)-6-((6-(4-((cis)-3-(methylsulfonamido)cyclobutyl)piperazin-1-yl)pyridin-3-yl)oxy)pyridin-4-yl)methyl)piperidin-4-yl)methyl)acetamide] are 3.16 nM and 9.6.
On the same counts, the results for `CC(=O)NCC1CCN(Cc2cc(Oc3ccc(N4CCN(CCN)CC4)nc3)nc(-c3cc(Cl)cc(Cl)c3)c2)CC1` [Example 28, N-((1-((2-((6-(4-(2-Aminoethyl)piperazin-1-yl)pyridin-3-yl)oxy)-6-(3,5-dichlorophenyl)pyridin-4-yl)methyl)piperidin-4-yl)methyl)acetamide] are 2 nM and 9.
As for `CC(=O)NCC1CCN(Cc2cc(Oc3ccc(N4CCN(CC(O)CCO)CC4)nc3)nc(-c3cc(Cl)cc(Cl)c3)c2)CC1` (centres unmarked) [Example 29, N-((1-((2-(3,5-Dichlorophenyl)-6-((6-(4-(2,4-dihydroxybutyl)piperazin-1-yl)pyridin-3-yl)oxy)pyridin-4-yl)methyl)piperidin-4-yl)methyl)acetamide], the EC50 in experiment [1] is less than 0.794 nM. Besides, the “furin enzyme pIC50” value in experiment [2] was 9.
On the same counts, the results for `CC(=O)NCC1CCN(Cc2cc(Oc3ccc(N4CCN(CCP(=O)(O)O)CC4)nc3)nc(-c3cc(Cl)cc(Cl)c3)c2)CC1` [Example 30, (2-(4-(5-((4-((4-(Acetamidomethyl)piperidin-1-yl)methyl)-6-(3,5-dichlorophenyl)pyridin-2-yl)oxy)pyridin-2-yl)piperazin-1-yl)ethyl)phosphonic acid] are 501 nM and 9.1.
The like results for `CC(=O)NCC1CCN(Cc2cc(Oc3ccc(N4CCN(CCOC(N)=O)CC4)nc3)nc(-c3cc(Cl)cc(Cl)c3)c2)CC1` [Example 31, 2-(4-(5-((4-((4-(Acetamidomethyl)piperidin-1-yl)methyl)-6-(3,5-dichlorophenyl)pyridin-2-yl)oxy)pyridin-2-yl)piperazin-1-yl)ethyl carbamate] were, in that order, 6.31 nM and 9.1.
On the same counts, the results for `CC(=O)NCC1CCN(Cc2cc(Oc3ccc(N4CCN(CCN(C)S(C)(=O)=O)CC4)nc3)nc(-c3cc(Cl)cc(Cl)c3)c2)CC1` [Example 32, N-((1-((2-(3,5-dichlorophenyl)-6-((6-(4-(2-(N-methylmethylsulfonamido)ethyl)piperazin-1-yl)pyridin-3-yl)oxy)pyridin-4-yl)methyl)piperidin-4-yl)methyl)acetamide] are 10 nM and 8.7.
